Earlier results in US8389009B2, “Spatial control of signal transduction” (Wisconsin Alumni Research Foundation, priority 2005, dated 2013).
Read-outs that look alike come from different tables or passages of the source.

T1: VEGF (Homo sapiens, UniProt P15692)
T1 sequence (P15692 27-191 isoform P15692-4): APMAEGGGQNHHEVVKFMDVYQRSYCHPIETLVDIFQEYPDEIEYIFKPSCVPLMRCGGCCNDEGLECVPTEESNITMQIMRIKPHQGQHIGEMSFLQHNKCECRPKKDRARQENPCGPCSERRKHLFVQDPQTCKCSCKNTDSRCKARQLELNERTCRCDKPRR


Experiments:
VEGF [1] = target: T1, VEGF; details: handle for VEGF; literature value; read-out: Affinity (KD)
IGF-1 [2] = target: T2, IGF-1 (Homo sapiens, UniProt P05019); details: handle for IGF-1; literature value; read-out: Affinity (KD)
IGF-1 [3] = target: T2, IGF-1; details: natural receptor binding IGF-1, according to previous studies; read-out: affinity (dissociation constant KD)
VEGF [4] = target: T1, VEGF; details: natural receptor binding VEGF, according to previous studies; read-out: affinity (dissociation constant KD)

T2 sequence (P05019 49-118 limits assumed): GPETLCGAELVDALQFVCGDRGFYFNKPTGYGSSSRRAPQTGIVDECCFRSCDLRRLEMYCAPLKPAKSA

Molecule | Kd (VEGF [1]) [nM] | other results
AAGAAACGGAAGAAUUGGAGACACGCUCGU (chemistry not given here) [SEQ ID NO: 2] | 1 | –
AGUUUUGGAAGAAUUGGAUGUUCCGAUCGU (chemistry not given here) [SEQ ID NO: 3] | 10 | –
AUGCAGUUUGAGAAGUCGCGGAU [SEQ ID NO: 1] | 0.01 | –
EELWCFDGPRAWVCGYVK [SEQ ID NO: 7] | 10000 | –
GGAAGAAUUGGUCAUCGUCGUCUCCGCCUCCC (chemistry not given here) [SEQ ID NO: 4] | 100 | –
HDCFASVEALRRCMY [SEQ ID NO: 9] | – | Kd (IGF-1 [2]): 500 nM
RNCFESVAALRRCMY [SEQ ID NO: 8] | – | Kd (IGF-1 [2]): 100 nM
VEPNCDIHVMWEWECFERL [SEQ ID NO: 5] | 200 | –
VTCAADALGFLYCWE [SEQ ID NO: 10] | – | Kd (IGF-1 [2]): 2000 nM
natural IGF-1 receptor: natural cell surface receptor that binds IGF-1 | – | Kd (IGF-1 [3]): ~0.16 nM
natural VEGF receptor 1: natural cell surface receptor that binds VEGF (protein, UniProt P17948 27-1338, looked up) Vascular endothelial growth …: SKLKDPELSLKGTQHIMQAGQTLHLQCRGEAAHKWSLPEMVSKESERLSITKSACGRNGKQFCSTLTLNTAQANHTGFYSCKYLAVPTSKKKETESAIYIFISDTGRPFVEMYSEIPEIIHMTEGRELVIPCRVTSPNITVTLKKFPLDTLIPDGKRIIWDSRKGFIISNATYKEIGLLTCEATVNGHLYKTNYLTHRQTNTIIDVQISTPRPVKLLRGHTLVLNCTATTPLNTRVQMTWSYPDEKNKRASVRRRIDQSNSHANIFYSVLTIDKMQNKDKGLYTCRVRSGPSFKSVNTSVHIYDKAFITVKHRKQQVLETVAGKRSYRLSMKVKAFPSPEVVWLKDGLPATEKSARYLTRGYSLIIKDVTEEDAGNYTILLSIKQSNVFKNLTATLIVNVKPQIYEKAVSSFPDPALYPLGSRQILTCTAYGIPQPTIKWFWHPCNHNHSEARCDFCSNNEESFILDADSNMGNRIESITQRMAIIEGKNKMASTLVVADSRISGIYICIASNKVGTVGRNISFYITDVPNGFHVNLEKMPTEGEDLKLSCTVNKFLYRDVTWILLRTVNNRTMHYSISKQKMAITKEHSITLNLTIMNVSLQDSGTYACRARNVYTGEEILQKKEITIRDQEAPYLLRNLSDHTVAISSSTTLDCHANGVPEPQITWFKNNHKIQQEPGIILGPGSSTLFIERVTEEDEGVYHCKATNQKGSVESSAYLTVQGTSDKSNLELITLTCTCVAATLFWLLLTLFIRKMKRSSSEIKTDYLSIIMDPDEVPLDEQCERLPYDASKWEFARERLKLGKSLGRGAFGKVVQASAFGIKKSPTCRTVAVKMLKEGATASEYKALMTELKILTHIGHHLNVVNLLGACTKQGGPLMVIVEYCKYGNLSNYLKSKRDLFFLNKDAALHMEPKKEKMEPGLEQGKKPRLDSVTSSESFASSGFQEDKSLSDVEEEEDSDGFYKEPITMEDLISYSFQVARGMEFLSSRKCIHRDLAARNILLSENNVVKICDFGLARDIYKNPDYVRKGDTRLPLKWMAPESIFDKIYSTKSDVWSYGVLLWEIFSLGGSPYPGVQMDEDFCSRLREGMRMRAPEYSTPEIYQIMLDCWHRDPKERPRFAELVEKLGDLLQANVQQDGKDYIPINAILTGNSGFTYSTPAFSEDFFKESISAPKFNSGSSDDVRYVNAFKFMSLERIKTFEELLPNATSMFDDYQGDSSTLLASPMLKRFTWTDSKPKASLKIDLRVTSKSKESGLSDVSRPSFCHSSCGHVSEGKRRFTYDHAELERKIACCSPPPDYNSVVLYSTPPI | – | Kd (VEGF [4]): ~0.0075 nM
